Key:
[1] = target: T1, Vitamin D3 receptor (Sus scrofa) (UniProt A3RGC1); assay: Inhibition of [3H]1-alpha,25-dihydroxy-vitamin D3 binding to porcine intestinal mucosal vitamin D receptor
T1 sequence (whole entry): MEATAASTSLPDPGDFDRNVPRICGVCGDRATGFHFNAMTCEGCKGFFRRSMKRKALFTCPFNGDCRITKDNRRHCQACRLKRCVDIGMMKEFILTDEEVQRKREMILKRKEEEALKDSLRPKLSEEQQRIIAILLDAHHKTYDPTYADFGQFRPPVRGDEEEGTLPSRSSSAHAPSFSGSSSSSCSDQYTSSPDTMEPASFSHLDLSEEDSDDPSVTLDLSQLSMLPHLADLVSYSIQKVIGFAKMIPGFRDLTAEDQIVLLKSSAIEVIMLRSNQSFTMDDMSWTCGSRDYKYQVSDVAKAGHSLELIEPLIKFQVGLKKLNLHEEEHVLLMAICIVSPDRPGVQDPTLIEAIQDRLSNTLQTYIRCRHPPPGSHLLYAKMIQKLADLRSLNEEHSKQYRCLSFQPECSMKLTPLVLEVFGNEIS

HL-60 = assay: Percent activity for its capability to induce differentiation of human promyeloid leukemia HL-60 cells; assay type: functional; set-up: concentration or dose not given beside the values

Compound | Receptor binding [1] | Activity (HL-60) [%]
C=C1/C(=C\C=C2/CCC[C@]3(C)[C@@H]([C@H](C)CC[C@H](O)[C@@]4(C)CO4)CC[C@@H]23)C[C@@H](O)C[C@@H]1O | 1 | 44
C=C1/C(=C\C=C2/CCC[C@]3(C)[C@@H]([C@H](C)CC[C@@H](O)[C@@]4(C)CO4)CC[C@@H]23)C[C@@H](O)C[C@@H]1O | 20 | 12
C=C1/C(=C\C=C2/CCC[C@]3(C)[C@@H]([C@H](C)CC[C@@H](O)[C@]4(C)CO4)CC[C@@H]23)C[C@@H](O)C[C@@H]1O | 9 | 33
C=C1/C(=C\C=C2/CCC[C@]3(C)[C@@H]([C@H](C)CC[C@H](O)[C@]4(C)CO4)CC[C@@H]23)C[C@@H](O)C[C@@H]1O | 5 | 7
C=C1/C(=C\C=C2/CCC[C@]3(C)[C@@H]([C@H](C)CCCC4(C)CO4)CC[C@@H]23)C[C@@H](O)C[C@@H]1O (some centres undefined) | 27 | 37
C=C1/C(=C\C=C2/CCC[C@]3(C)[C@@H]([C@H](C)/C=C/[C@H](O)[C@]4(C)CO4)CC[C@@H]23)C[C@@H](O)C[C@@H]1O | 8 | 30
C=C1/C(=C\C=C2/CCC[C@]3(C)[C@@H]([C@H](C)/C=C/[C@@H](O)[C@@]4(C)CO4)CC[C@@H]23)C[C@@H](O)C[C@@H]1O | 8 | 30

Source: ChEMBL document CHEMBL1126968, “Synthesis and biological evaluation of some 25,26-epoxy-1,24-dihydroxyvitamin D3 analogues” (1993)
